From US9493466B2, “Treatment of cancer with TOR kinase inhibitors” (Signal Pharmaceuticals, LLC, priority 2011, dated 2016)

Key:
Assay in all cases: Growth inhibition assay for breast cancer
Assay type in all cases: cell-based
NCI/ADR-RES = NCI/ADR-RES (Basal, TN), 96 hours
Text: (§1) Growth Inhibition Assay for Breast Cancer (BC) (Compound 1). All breast cancer cell lines were maintained and tested in appropriate culture media. The seeding density for each cell line was optimized to ensure assay linearity in 384-well plates.
(§2) Increasing concentrations of Compound 1 were spotted via an acoustic dispenser (EDC ATS-100) into an empty 384-well plate. Compound 1 was spotted in a 10-point serial dilution fashion (3-fold dilution) in duplicate within the plate. The dimethyl sulfoxide (DMSO) concentration was kept constant for a final assay concentration of 0.1% DMSO. Plates were replicated for use against different cell lines and testing periods. After compound plate replication, all plates were sealed (Agilent ThermoLoc) and stored at −20° C. for up to 1 month. When ready for testing, plates were removed from the freezer, thawed, and unsealed just prior to the addition of the test cell.
(§3) Prior to testing, cells were grown and expanded in culture flasks to provide sufficient amounts of starting material. Cells were then diluted to their desired densities and added directly to the Compound 1-spotted 384-well plates. Cells were allowed to grow for 96 hours at 37° C./5% CO2. At the time of setup (t0), initial cell number was assessed via a viability assay (Cell Titer-Glo) and read for luminescence. After 96 hours, cell viability of Compound 1-treated cells was assessed via Cell Titer-Glo and read for luminescence.
(§4) Cell lines were assayed for growth inhibition by Compound 1 for at least two independent tests. All data was normalized and represented as a percentage of the DMSO-treated control cells. […] The potency of Compound 1 in different subtypes of breast cancer cell lines is shown in FIG. 7A, while the correlation of Compound 1 sensitivity to ER, HER, PIK3CA, and TP53 status is shown in FIG. 7B.

HCC1954 = HCC1954 (Basal, Her2+), 96 hours
Text: as §1, §2, §3, §4

MCF10A = MCF10A (Basal, TN), 96 hours
Text: as §1, §2, §3, §4

ZR-75-30 = ZR-75-30 (Luminal, Her2+), 96 hours
Text: as §1, §2, §3, §4

HCC1500 = HCC1500 (Luminal, ER+), 96 hours
Text: as §1, §2, §3, §4

T47D = T47D (Luminal, ER+), 96 hours
Text: as §1, §2, §3, §4

MDA-MB-468 = MDA-MB-468 (Basal, TN), 96 hours
Text: as §1, §2, §3, §4

HCC1143 = HCC1143 (Basal, TN), 96 hours
Text: as §1, §2, §3, §4

MDA-MB-175-VII = MDA-MB-175-VII (Luminal, ER+), 96 hours
Text: as §1, §2, §3, §4

SK-BR-3 = SK-BR-3 (Luminal, Her2+), 96 hours
Text: as §1, §2, §3, §4

CAL-51 = CAL-51 (Basal, TN), 96 hours
Text: as §1, §2, §3, §4

HS578T = HS578T (Basal, TN), 96 hours
Text: as §1, §2, §3, §4

MCF12A = MCF12A (Basal, TN), 96 hours
Text: as §1, §2, §3, §4

HCC1187 = HCC1187 (Basal, TN), 96 hours
Text: as §1, §2, §3, §4

HCC38 = HCC38 (Basal, TN), 96 hours
Text: as §1, §2, §3, §4

HCC1428 = HCC1428 (Luminal, ER+), 96 hours
Text: as §1, §2, §3, §4

CAMA-1 = CAMA-1 (Luminal, ER+), 96 hours
Text: as §1, §2, §3, §4

MDA-MB-435 = MDA-MB-435 (Basal, TN), 96 hours
Text: as §1, §2, §3, §4

BT-474 = BT-474 (Luminal, Her2+), 96 hours
Text: as §1, §2, §3, §4

MCF7 = MCF7 (Luminal, ER+), 96 hours
Text: as §1, §2, §3, §4

BT-483 = BT-483 (Luminal, ER+), 96 hours
Text: as §1, §2, §3, §4

DU4475 = DU4475 (Basal, TN), 96 hours
Text: as §1, §2, §3, §4

UACC-812 = UACC-812 (Luminal, Her2+), 96 hours
Text: as §1, §2, §3, §4

MDA-MB-453 = MDA-MB-453 (Luminal, Her2+), 96 hours
Text: as §1, §2, §3, §4

EFM-192A = EFM-192A (Luminal, Her2+), 96 hours
Text: as §1, §2, §3, §4

CAL-120 = CAL-120 (Basal, TN), 96 hours
Text: as §1, §2, §3, §4

HCC1569 = HCC1569 (Basal, Her2+), 96 hours
Text: as §1, §2, §3, §4

HCC2157 = HCC2157 (Basal, TN), 96 hours
Text: as §1, §2, §3, §4

HCC202 = HCC202 (Luminal, Her2+), 96 hours
Text: as §1, §2, §3, §4

MDA-MB-157 = MDA-MB-157 (Basal, TN), 96 hours
Text: as §1, §2, §3, §4

KPL-1 = KPL-1 (Luminal, ER+), 96 hours
Text: as §1, §2, §3, §4

`CO[C@H]1CC[C@H](N2C(=O)CNc3ncc(-c4ccc(C(C)(C)O)nc4)nc32)CC1` [Compound 1, 7-(6-(2-hydroxypropan-2-yl)pyridin-3-yl)-1-((1r,4r)-4-methoxycyclohexyl)-3,4-dihydropyrazino-[2,3-b]pyrazin-2(1H)-one] was tested, and the GI50 (NCI/ADR-RES) was 944 nM, the GI50 (HCC1954) was 197 nM and the GI50 (MCF10A) was 147 nM. For the same molecule, the GI50 (ZR-75-30) was 63.4 nM, the GI50 (HCC1500) was 24.8 nM and the GI50 (T47D) was 55.3 nM. It also gave a GI50 (MDA-MB-468) of 1860 nM, a GI50 (HCC1143) of 343 nM and a GI50 (MDA-MB-175-VII) of 40.8 nM. It also gave a GI50 (SK-BR-3) of 121 nM, a GI50 (CAL-51) of 119 nM and a GI50 (HS578T) of 343 nM. The GI50 (MCF12A) was 44.4 nM, the GI50 (HCC1187) was 567 nM and the GI50 (HCC38) was 2950 nM. It also gave a GI50 (HCC1428) of 98.4 nM, a GI50 (CAMA-1) of 146 nM and a GI50 (MDA-MB-435) of 222 nM. The GI50 (BT-474) was 226 nM, the GI50 (MCF7) was 181 nM and the GI50 (BT-483) was 21.7 nM. For the same molecule, the GI50 (DU4475) was 1240 nM, the GI50 (UACC-812) was 47.8 nM and the GI50 (MDA-MB-453) was 143 nM. For the same molecule, the GI50 (EFM-192A) was 192 nM, the GI50 (CAL-120) was 700 nM and the GI50 (HCC1569) was 356 nM. The GI50 (HCC2157) was 399 nM, the GI50 (HCC202) was 20.1 nM and the GI50 (MDA-MB-157) was 4340 nM. It also gave a GI50 (KPL-1) of 97.3 nM.
